From the NIST ThermoML archive (doi:10.1021/je060271a)
Numbers after ± are expanded uncertainties.

Conditions: 343.15 K, Liquid, Vibrating tube method

What does the source list for CCCCCCCC(=O)OCC(COC(=O)CCCCCCC)(COC(=O)CCCCCCC)COC(=O)CCCCCCC [pentaerythritol tetraoctanoate]?
mass density (27160 kPa): 944.5 ± 1.2 kg/m3; mass density (27200 kPa): 944.7 ± 1.2 kg/m3; mass density (27241 kPa): 944.7 ± 1.2 kg/m3; mass density (27290 kPa): 944.7 ± 1.2 kg/m3; mass density (27331 kPa): 944.6 ± 1.2 kg/m3; mass density (27371 kPa): 944.7 ± 1.2 kg/m3; mass density (27412 kPa): 944.8 ± 1.2 kg/m3; mass density (27462 kPa): 944.7 ± 1.2 kg/m3; mass density (27503 kPa): 944.8 ± 1.2 kg/m3; mass density (27544 kPa): 944.8 ± 1.2 kg/m3; mass density (27594 kPa): 944.9 ± 1.2 kg/m3; mass density (27637 kPa): 944.8 ± 1.2 kg/m3; mass density (27680 kPa): 944.9 ± 1.2 kg/m3; mass density (27721 kPa): 944.9 ± 1.2 kg/m3; mass density (27772 kPa): 945 ± 1.2 kg/m3; mass density (27815 kPa): 945.1 ± 1.2 kg/m3; mass density (27857 kPa): 945 ± 1.2 kg/m3; mass density (27909 kPa): 945 ± 2.1 kg/m3; mass density (27951 kPa): 945 ± 1.2 kg/m3; mass density (28003 kPa): 945 ± 1.2 kg/m3; mass density (28046 kPa): 945.1 ± 1.2 kg/m3; mass density (28089 kPa): 945.1 ± 1.2 kg/m3; mass density (28141 kPa): 945.3 ± 1.2 kg/m3; mass density (28185 kPa): 945.2 ± 1.2 kg/m3; mass density (28231 kPa): 945.3 ± 1.2 kg/m3; mass density (28277 kPa): 945.4 ± 1.2 kg/m3; mass density (28332 kPa): 945.4 ± 1.2 kg/m3; mass density (28378 kPa): 945.4 ± 1.2 kg/m3; mass density (28426 kPa): 945.4 ± 1.2 kg/m3; mass density (28478 kPa): 945.5 ± 1.2 kg/m3; mass density (28513 kPa): 945.4 ± 1.2 kg/m3; mass density (28545 kPa): 945.5 ± 1.2 kg/m3; mass density (28583 kPa): 945.4 ± 1.2 kg/m3; mass density (28615 kPa): 945.4 ± 1.2 kg/m3; mass density (28647 kPa): 945.5 ± 1.2 kg/m3; mass density (28680 kPa): 945.5 ± 1.2 kg/m3; mass density (28720 kPa): 945.7 ± 1.2 kg/m3; mass density (28753 kPa): 945.6 ± 1.2 kg/m3; mass density (28786 kPa): 945.6 ± 1.2 kg/m3; mass density (28818 kPa): 945.8 ± 1.2 kg/m3; mass density (28858 kPa): 945.7 ± 1.2 kg/m3; mass density (28890 kPa): 945.7 ± 1.2 kg/m3; mass density (28923 kPa): 945.7 ± 1.2 kg/m3; mass density (28963 kPa): 945.7 ± 1.2 kg/m3; mass density (28996 kPa): 945.8 ± 1.2 kg/m3; mass density (29036 kPa): 945.8 ± 1.2 kg/m3; mass density (29070 kPa): 945.9 ± 1.2 kg/m3; mass density (29104 kPa): 945.8 ± 1.2 kg/m3; mass density (29138 kPa): 945.9 ± 1.2 kg/m3; mass density (29179 kPa): 945.9 ± 1.2 kg/m3; mass density (29207 kPa): 945.8 ± 1.2 kg/m3; mass density (29247 kPa): 946 ± 1.2 kg/m3; mass density (29281 kPa): 945.9 ± 1.2 kg/m3; mass density (29321 kPa): 945.9 ± 1.2 kg/m3; mass density (29355 kPa): 946 ± 1.2 kg/m3; mass density (29389 kPa): 946 ± 1.2 kg/m3; mass density (29424 kPa): 946 ± 1.2 kg/m3; mass density (29465 kPa): 946 ± 1.2 kg/m3; mass density (29500 kPa): 946 ± 1.2 kg/m3; mass density (29534 kPa): 946.1 ± 1.2 kg/m3; mass density (29570 kPa): 946.1 ± 1.2 kg/m3; mass density (29612 kPa): 946.1 ± 1.2 kg/m3; mass density (29648 kPa): 946.2 ± 1.2 kg/m3; mass density (29685 kPa): 946.2 ± 1.2 kg/m3; mass density (29720 kPa): 946.2 ± 1.2 kg/m3; mass density (29754 kPa): 946.3 ± 1.2 kg/m3; mass density (29797 kPa): 946.2 ± 1.2 kg/m3; mass density (29832 kPa): 946.2 ± 1.2 kg/m3; mass density (29874 kPa): 946.2 ± 1.2 kg/m3; mass density (29910 kPa): 946.3 ± 1.2 kg/m3; mass density (29945 kPa): 946.3 ± 1.2 kg/m3; mass density (29987 kPa): 946.4 ± 1.2 kg/m3; mass density (30024 kPa): 946.4 ± 1.2 kg/m3; mass density (30060 kPa): 946.5 ± 1.2 kg/m3; mass density (30096 kPa): 946.4 ± 1.2 kg/m3; mass density (30139 kPa): 946.4 ± 1.2 kg/m3; mass density (30175 kPa): 946.5 ± 1.2 kg/m3; mass density (30212 kPa): 946.4 ± 1.2 kg/m3; mass density (30255 kPa): 946.6 ± 1.2 kg/m3; mass density (30291 kPa): 946.5 ± 1.2 kg/m3; mass density (30327 kPa): 946.7 ± 1.2 kg/m3; mass density (30371 kPa): 946.5 ± 1.2 kg/m3; mass density (30525 kPa): 946.7 ± 1.2 kg/m3; mass density (30562 kPa): 946.8 ± 1.2 kg/m3; mass density (30607 kPa): 946.7 ± 1.2 kg/m3; mass density (30646 kPa): 946.7 ± 1.2 kg/m3; mass density (30682 kPa): 946.8 ± 1.2 kg/m3; mass density (30727 kPa): 946.8 ± 1.2 kg/m3; mass density (30764 kPa): 946.9 ± 1.2 kg/m3; mass density (30802 kPa): 946.8 ± 1.2 kg/m3; mass density (30847 kPa): 946.8 ± 1.2 kg/m3; mass density (30885 kPa): 946.9 ± 1.2 kg/m3; mass density (30923 kPa): 947 ± 1.2 kg/m3; mass density (31006 kPa): 946.9 ± 1.2 kg/m3; mass density (31045 kPa): 947 ± 1.2 kg/m3; mass density (31091 kPa): 947 ± 1.2 kg/m3; mass density (31130 kPa): 947 ± 1.2 kg/m3; mass density (31169 kPa): 947.2 ± 1.2 kg/m3; mass density (31208 kPa): 947.1 ± 1.2 kg/m3; mass density (31255 kPa): 947.1 ± 1.2 kg/m3; mass density (31294 kPa): 947.2 ± 1.2 kg/m3; mass density (31341 kPa): 947.1 ± 1.2 kg/m3; mass density (31380 kPa): 947.2 ± 1.2 kg/m3; mass density (31411 kPa): 947.1 ± 1.2 kg/m3; mass density (31459 kPa): 947.2 ± 1.2 kg/m3; mass density (31506 kPa): 947.2 ± 1.2 kg/m3; mass density (31538 kPa): 947.4 ± 1.2 kg/m3; mass density (31586 kPa): 947.3 ± 1.2 kg/m3; mass density (31633 kPa): 947.5 ± 1.2 kg/m3; mass density (31674 kPa): 947.4 ± 1.2 kg/m3; mass density (31717 kPa): 947.3 ± 1.2 kg/m3; mass density (31758 kPa): 947.5 ± 1.2 kg/m3; mass density (31807 kPa): 947.4 ± 1.2 kg/m3; mass density (31848 kPa): 947.5 ± 1.2 kg/m3; mass density (31898 kPa): 947.5 ± 1.2 kg/m3; mass density (31942 kPa): 947.5 ± 1.2 kg/m3; mass density (31985 kPa): 947.6 ± 1.2 kg/m3; mass density (32036 kPa): 947.6 ± 1.2 kg/m3; mass density (32074 kPa): 947.7 ± 1.2 kg/m3; mass density (32104 kPa): 947.6 ± 1.2 kg/m3; mass density (32141 kPa): 947.6 ± 1.2 kg/m3; mass density (32172 kPa): 947.8 ± 1.2 kg/m3; mass density (32204 kPa): 947.8 ± 1.2 kg/m3; mass density (32242 kPa): 947.7 ± 1.2 kg/m3; mass density (32273 kPa): 947.7 ± 1.2 kg/m3; mass density (32305 kPa): 947.9 ± 1.2 kg/m3; mass density (32342 kPa): 947.7 ± 1.2 kg/m3; mass density (32374 kPa): 947.9 ± 1.2 kg/m3; mass density (32405 kPa): 947.8 ± 1.2 kg/m3; mass density (32443 kPa): 947.8 ± 1.2 kg/m3; mass density (32475 kPa): 947.8 ± 1.2 kg/m3; mass density (32507 kPa): 947.8 ± 1.2 kg/m3; mass density (32545 kPa): 947.9 ± 1.2 kg/m3; mass density (32577 kPa): 947.9 ± 1.2 kg/m3; mass density (32610 kPa): 948 ± 1.2 kg/m3; mass density (32644 kPa): 948 ± 1.2 kg/m3; mass density (32671 kPa): 948 ± 1.2 kg/m3; mass density (32710 kPa): 948 ± 1.2 kg/m3; mass density (32736 kPa): 948.1 ± 1.2 kg/m3; mass density (32762 kPa): 948.1 ± 1.2 kg/m3; mass density (32840 kPa): 948 ± 1.2 kg/m3; mass density (32885 kPa): 948.1 ± 1.2 kg/m3; mass density (32925 kPa): 948 ± 1.2 kg/m3; mass density (32958 kPa): 948.2 ± 1.2 kg/m3; mass density (32991 kPa): 948.3 ± 1.2 kg/m3; mass density (33030 kPa): 948.3 ± 1.2 kg/m3; mass density (33064 kPa): 948.3 ± 1.2 kg/m3; mass density (33099 kPa): 948.3 ± 1.2 kg/m3
